Measured values taken from patent US20240165085A1, “ORAL FELINE FEED AND METHODS FOR CONTROLLING TICK INFESTATIONS IN A FELINE” (priority 2021, published 2024).

How the values were obtained:
Dermacentor variabilis [1] = experiment: Example 3: efficacy of afoxolaner and fluralaner liquid formulations per os in cats against Dermacentor variabilis; assay type: in vivo; conditions: treatment group 2, 0.075 mg/kg daily (Days 0-29), liquid formulation
Description: Efficacy of Various Formulations of Isoxazoline Administered per os, i.e. by mouth, to Cats for the Treatment and Control of Dermacentor variabilis.
Methods: A pool of 36 cats are to be preliminarily infested with ˜50 unfed adult D. variabilis ticks in order to produce cats that can suitably sustain a reliable infestation rate, defined as approximately 25% of attached ticks being live at the end of a 48-hour period. The 30 cats with the highest live attached tick counts are to be selected for inclusion in the study. The cats are to be randomly assigned to a single control group and 4 treatment groups with 6 cats per treatment group.
(§1) The cats are to be housed individually during the study period and are to be fed a commercial dry cat food ration with ad libitum access to water.
Each cat in a treatment group (test groups 2-5) is to receive by mouth, preferably in combination with feed, a liquid formulation of isoxazoline. The dosage is to be administered to the cats on each of days 0-29 according to TABLE 2.
(§2) Cats in the control group are not to receive isoxazoline or any other tick control treatment. Each cat in the treatment group is to be offered its daily ration (dry food) and the individual doses of liquid formulation are to be administered after the individual cat has eaten at least 25% of its total daily ration. […]

Dermacentor variabilis [2] = experiment: Example 1: efficacy of isoxazoline per os in cats against Dermacentor variabilis (attached tick comb counts); assay type: in vivo
Description: Efficacy of Isoxazoline Administered per os, i.e. by mouth, to Cats for the Treatment and Control of Dermacentor variabilis.
Methods: A pool of 14 cats are to be preliminarily infested with ˜50 unfed adult D. variabilis ticks in order to produce cats that can suitably sustain a reliable infestation rate, defined as approximately 25% attached ticks being live at the end of a 48-hour period. The 12 cats with the highest live attached tick counts are to be selected for inclusion in the study. The cats are to be divided into a control group and a treatment group with 6 cats in each group.
as §1
(§3) Each cat in the treatment group is to receive by mouth, preferably in combination with feed, a liquid formulation of isoxazoline. The dosage of 1.125 mg/kg is to be administered to the cats on each of days 0-29.
as §2, with “ration. After receiving the dose of isoxazoline, the cats are to be allowed to continue eating. This mimics incorporating the isoxazoline in feed.” for “ration.”

[3] = Example 1: average plasma concentration of isoxazoline in cats, daily oral dosing; assay type: in vivo, cat; conditions: 1.125 mg/kg daily
Experimental: as §3
Using the same study method as described above, blood is to be drawn at 72, 168, 336, 504, 720 and 888 hours after the initial dose of isoxazoline is administered. The average concentration of isoxazoline in the blood can then be determined.

[4] = Example 4: plasma concentration of isoxazoline in cats given medicated feed; assay type: in vivo, cat; conditions: medicated feed dosed at 1.5 mg/kg, five different feed formulations, Day 0 to Day 30
Experimental: Plasma Concentration of Isoxazoline in Cats when Isoxazoline is Administered in a Medicated Feed Dosed at 1.5 mg/kg of the Cat's Weight.
Methods: A pool of 30 cats are to be assigned to 5 groups of 6 cats per group by weight to minimize variation between and within the groups. Each group will be given a different feed formulation containing isoxazoline and the blood level of isoxazoline over the one month period following the single daily dose will be determined.
(§4) The cats are to be housed individually during the study period and are to have ad libitum access to water.
There is to be an initial acclimation period of at least 4 days during which cats are to be transitioned from a standard certified commercial cat feed to an unmedicated version of the daily cat feed. During the acclimation period, the cats are to be allowed 15 minutes/day to consume the feed.
Each medicated feed formulation should be able to deliver approximately 14.1 g/kg of daily feed containing isoxazoline. The amount of medicated feed for each cat is to be determined according to the most recent body weight of the cat prior to the first day (Day 0) of the study. Each medicated feed is to be provided for 15 minutes daily from Day 0 up to and including Day 30. Any uneaten medicated feed remaining after each daily 15 minute timed offering period is to be removed, weighed and the amount recorded. […]

Dermacentor variabilis [5] = experiment: Example 5: efficacy of isoxazoline in medicated feed in cats against Dermacentor variabilis; assay type: in vivo; conditions: 1 mg/kg, days 0-29, by day 14
Experimental: (§5) Efficacy of Isoxazoline when Isoxazoline is Administered in a Medicated Feed for the Treatment and Control of Dermacentor variabilis.
Methods: A pool of 24 cats are to be preliminarily infested with ˜50 unfed adult D. variabilis ticks in order to produce cats that can suitably sustain a reliable infestation rate, defined as approximately 25% of attached ticks being live at the end of a 48-hour period. The 18 cats with the highest live attached tick counts are to be randomly assigned to a single control group (Group 1) and 2 different medicated feed treatment groups (Groups 2 and 3) with 6 cats per group. The remaining 6 cats are to be assigned to a final medicated feed treatment group (Group 4).
as §4
(§6) Each cat in a treatment group (Groups 2-4) is to receive a medicated daily feed from study days 0-29. Each medicated daily feed (Groups 2-4) is to be offered to the cats for 1 hour on each of days 0-29 according to test groups in TABLE 3.
Cats in the control group are not to receive isoxazoline or any other tick control treatment. […]

[6] = Example 5: plasma concentration of isoxazoline in cats given medicated daily feed; assay type: in vivo, cat
Experimental: as §6
Using the same study method as described above, blood is to be drawn at day 0 (day of the first administration of medicated feed) and days 2, 4, 7, 10, 14, 21 and 30 after the initial dose of isoxazoline is administered on day 0. The average concentration of isoxazoline in the blood for different dosage levels can then be determined.

Dermacentor variabilis [7] = experiment: Example 6: efficacy of Mivorilaner in medicated feed in cats against Dermacentor variabilis (FIG. 1); assay type: in vivo; conditions: days 0-29, within 16 days
Experimental: FIG. 1. A graph of the arithmetic mean efficacy for treatment Group 2 (stars) and Group 3 (horizontal hash). Percent efficacy=[AM fleas CONTROL−AM fleas TREATED]/AM fleas CONTROL. Efficacy measured at 2, 16, 27, 30, and 37 days after Initial Treatment, with either 0.75 mg of Mivorilaner/kg (Group 2) or 1.5 mg of Mivorilaner/kg (Group 3).
as §5
Methods: A pool of cats are to be preliminarily infested with ˜100 unfed adult C. felis fleas in order to produce cats that can suitably sustain a reliable infestation rate, defined as approximately 50% retention of live fleas at the end of a 48-hour period. The cats with the highest live flea counts are to be randomly assigned to a single control group (Group 1) and 2 medicated feed treatment groups with 4 cats per group. The cats in groups 2 and 3 will receive Mivorilaner.
as §4
Each cat in a treatment group (Groups 2 and 3) is to receive a medicated daily feed from study days 0-29 according to TABLE 4.
The cats are to be fasted overnight prior to each daily treatment. […]

Structure (SMILES) | efficacy (Dermacentor variabilis [1]; by day 14) | efficacy (Dermacentor variabilis [1]; by day 21) | reduction in attached tick counts over the control group (Dermacentor variabilis [2]; 1.125 mg/kg by mouth daily days 0-29, within 7 days) | reduction in attached tick counts over the control group (Dermacentor variabilis [2]; 1.125 mg/kg by mouth daily days 0-29, within 14 days) [%] | average plasma concentration ([3]; day 3) | average plasma concentration ([3]; day 21) | average plasma concentration ([3]; day 37, approximately 8 days after the final dose) | mean plasma concentrations [4] | efficacy (Dermacentor variabilis [5]; treatment group 2, medicated daily feed) | efficacy (Dermacentor variabilis [5]; treatment group 3, medicated daily feed) | plasma concentrations relative to treatment groups 2 and 3 ([6]; treatment group 4, 3 mg/kg daily, versus groups 2 and 3, 1 mg/kg daily) | plasma concentrations, comparison of feed formulations ([6]; treatment groups 2 and 3, 1 mg/kg daily, different feed formulations) | efficacy (percent reduction in attached live and moribund tick counts) (Dermacentor variabilis [7]; treatment group 2, 0.75 mg/kg daily in wet cat food) [%] | efficacy (percent reduction in attached live and moribund tick counts) (Dermacentor variabilis [7]; treatment group 3, 1.5 mg/kg daily in wet cat food) [%]
O=C(CNC(=O)c1ccc(C2=NOC(c3cc(Cl)cc(C(F)(F)F)c3)(C(F)(F)F)C2)c2ccccc12)NCC(F)(F)F (centres unmarked) [Afoxolaner, 4-{5-[3-chloro-5-(trifluoromethyl)phenyl]-5-(trifluoromethyl)-4,5-dihydroisoxazol-3-yl}-N-{2-oxo-2-[(2,2,2-trifluoroethyl)amino]ethyl}naphthalene-1-carboxamide] | greater than 80% | greater than 90% |  |  |  |  |  |  |  |  |  |  |  | 
O=C(CNC(=O)c1sc(C2=NO[C@@](c3cc(Cl)c(F)c(Cl)c3)(C(F)(F)F)C2)c2c1CCC2)NCC(F)F [mivorilaner, 3-[(5S)-5-(3,5-dichloro-4-fluorophenyl)-5-(trifluoromethyl)-4,5-dihydroisoxazol-3-yl]-N-[2-[(2,2-difluoroethyl)amino]-2-oxoethyl]-5,6-dihydro-4H-cyclopenta[c]thiophene-1-carboxamide] |  |  | at least 60% | 90 | about 1011 ng/mL | about 4088 | about 3025 ng/mL | consistent with those achieved in Examples 1 and 2 | greater than 95% | greater than 95% | 2.5-4 times higher | consistent between treatment groups 2 and 3 | 100 | 100
